Experimental data taken from US20220117938A1, “COMBINATON THERAPY WITH A DON PRODRUG AND AN IMMUNE CHECKPOINT INHIBITOR” (DRACEN PHARMACEUTICALS, INC., priority 2019, published 2022).

Tested on: MC-38 tumors
Experiment: Anti-tumor efficacy of Compound 1 with and without anti-PD-1 in the subcutaneous MC-38 model (Example 4)
Assay type: in vivo, Mus musculus
Settings: for MST: endpoint tumor volume 2000 mm^3; for T/C / TGI: Day 12
Protocol: Tumor sizes were measured three times a week in two dimensions using a caliper, and the volume expressed in mm^3 using the formula: V=0.5 a×b^2 where a and b are the long and short diameters of the tumor, respectively. The tumor sizes were then used for the calculations of both tumor growth inhibition (TGI) and T/C values.
TGI is calculated for each group using the formula: […]
TVTreatment_DayN is the average tumor volume of a treatment group on a given day, TVTreatment_Day0 is the average tumor volume of the treatment group on the first day of treatment, TVVehicle_DayN is the average tumor volume of the vehicle control group on a given day, and TVVehicle_Day0 is the average tumor volume of the vehicle group on the first day of treatment.
The T/C value (in percent) is an indication of antitumor effectiveness, T/C (%)=RTVTreatment/RTVControl×100% (RTVTreatment: the mean RTV of the treatment group; RTVControl: the mean RTV of the vehicle treated group). RTV (relative tumor volume)=TVDayN/TVDay0. TVDayN and TVDay0 is the tumor volume on day N and Day 0 respectively. T/C (%)≤42% is considered as significant antitumor activity and <10% is considered as highly significant antitumor activity by the National Cancer Institute criteria.
Animal survival curve: When an individual animal reached to the termination endpoint (TV>2000 mm^3), the mouse was euthanized. The time from treatment initiation to the termination was deemed as its survival time. Survival curve was plotted by Kaplan-Meier method. Median survival time (MST) was calculated for each group. Increase of life span (ILS) was calculated according to the following formula: […]
ILS (%)>25% is considered as a biologically significant survival benefit.
The tumor volume between different groups was analyzed by two-way repeated measures ANOVA. Dunnett post hoc test was used for the comparisons with vehicle group. All data analyzed using GraphPad Prism 6.0. P<0.05 is considered to be statistically significant.
Female C57BL/6 mice were inoculated subcutaneously at right flank with MC-38 cells for tumor development. Six days after tumor inoculation, 64 mice with tumor size ranging from 50-100 mm^3 (average tumor size 71 mm^3) were selected and assigned into 8 groups using stratified randomization with 8 mice per group based upon their tumor volumes. The treatments were started from the day of randomization (defined as D0), Group 1 was treated with Vehicle (Tween 80:Ethanol:Saline—5:5:90 v/v/v), s.c., qd×14, Group 2 was treated with Anti-PD-1 10 mg/kg i.p. q4d×4, Group 3 was treated with Compound 1 3 mpk qd×5, sc followed by 1 mpk, qd×9, sc, Group 4 was treated with Compound 1 3 mpk qd×5, sc followed by 1 mpk, qd×9, sc+anti PD-1 q4d×4, ip, Group 5 was treated with Compound 1 1 mpk qd×5, sc followed by 0.3 mpk, qd×9, sc, Group 6 was treated with Compound 1 1 mpk qd×5, sc followed by 0.3 mpk, qd×9, sc+anti PD-1 q4d×4, ip, Group 7 was treated with Compound 1 0.3 mpk qd×5, sc followed by 0.1 mpk, qd×9, sc and Group 8 was treated with Compound 1 0.3 mpk qd×5, sc followed by 0.1 mpk, qd×9, sc+anti PD-1 q4d×4, ip. The tumor sizes were measured three times per week during the treatment. The entire study was terminated on D56 after start of the treatment. […]
The MC-38 tumor cells were maintained in vitro as a monolayer culture in DMEM medium supplemented with 10% heat inactivated fetal bovine serum and 100 μg/mL penicillin streptomycin at 37° C. in an atmosphere of 5% CO2 in air. The tumor cells were routinely subcultured twice weekly by trypsin-EDTA treatment. The cells growing to a confluency around 70%-80% were harvested and counted for tumor inoculation. The cultured MC-38 were harvested, re-suspended in base medium at a density of 1×10^7 cells/mL with viability >90%. Each mouse was inoculated subcutaneously at the right flank with 1×10^6 cells in 0.1 ml base medium for tumor development. […]

`CC(=O)N[C@@H](Cc1c[nH]c2ccccc12)C(=O)N[C@@H](CCC(=O)C=[N+]=[N-])C(=O)OC(C)C` [Compound 1, Isopropyl (S)-2-((S)-2-acetamido-3-(1H-indol-3-yl)propanamido)-6-diazo-5-oxohexanoate] was tested, and the ILS (Cpd. 1 0.3 mpk/0.1 mpk) was 114.29%, the “RTV at day 12” value (Cpd. 1 0.3 mpk/0.1 mpk) was 1.67 ± 0.03 and the MST (Cpd. 1 0.3 mpk/0.1 mpk) was 30 days. The ILS (Cpd. 1 1 mpk/0.3 mpk) was 135.71%, the “RTV at day 12” value (Cpd. 1 1 mpk/0.3 mpk) was 0.36 ± 0.09 and the MST (Cpd. 1 1 mpk/0.3 mpk) was 33 days. The ILS (Cpd. 1 3 mpk/1 mpk) was 135.71%, the “RTV at day 12” value (Cpd. 1 3 mpk/1 mpk) was 0.11 ± 0.03 and the MST (Cpd. 1 3 mpk/1 mpk) was 33 days. The T/C (Cpd. 1 0.3 mpk/0.1 mpk) was 7.02%, the TGI (Cpd. 1 0.3 mpk/0.1 mpk) was 97.27% and the T/C (Cpd. 1 1 mpk/0.3 mpk) was 1.51%. The TGI (Cpd. 1 1 mpk/0.3 mpk) was 102.87%, the T/C (Cpd. 1 3 mpk/1 mpk) was 0.46% and the TGI (Cpd. 1 3 mpk/1 mpk) was 103.98%.
